Test system: STZ-induced diabetes model mouse (STZ-mouse)
Test: Blood glucose level in STZ-induced diabetes model mouse (Test Example 4-1)
Type: in vivo, CD-1 (ICR) mice
Conditions: STZ-mice, Day 14 after the treatment
Experimental: The “complex containing an active substance” was injected into the intestine of a STZ-induced diabetes model mouse (STZ-mouse) together with the “assistant agent for assisting introduction into a living body”, and then measurement of a “change in plasma glucose (blood glucose level) (Test Example 4-1)” and “measurement of the plasma insulin level (Test Example 4-2)” at the end of the treatment were performed.
“Compositions containing an active substance” below were prepared by mixing the above-described “active substance complex (Bio3 formulation)” with the respective “assistant agents for assisting introduction into a living body” above, and were then used in the experiments.
CD-1 (ICR) mice (male, 4 weeks old) purchased from Charles River Japan were preliminarily kept for 1 week before experiment.
Procedure for Producing Disease Model Mice STZ (40 mg/kg) prepared in a citrate buffer (100 mmol/L, pH 4.5) was intravenously administered (iv) to the tail veins of the above-mentioned mice.
One week after, blood was collected from ophthalmic venous plexus of the mice with a capillary, and the mice were divided into the following four groups (six mice per group) based on the measured blood glucose levels such that the average blood glucose levels of the groups were equal to one another as follows. […]

insulin
blood glucose level as ratio to the non-treated control group: up to 60%

Reference: patent US20220218765A1, “ASSISTANT AGENT FOR ASSISTING INTRODUCTION INTO LIVING BODY AND METHOD OF UTILIZING THE SAME” (SHINBIOSIS CORPORATION, priority 2019, published 2022)
